# Patent US8802597B2, “Herbicidal pyrimidines” (E I du Pont de Nemours and Company, priority 2003, dated 2014)
# Tests used:
# Test in all cases: Test C pre/postemergence
# Type in all cases: in vivo
# Conditions in all cases: Postemergence
# [1] = test system: cocklebur (Xanthium strumarium)
# Summary of the method: (§1)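 Test compounds, formulated in a non-phytotoxic solvent mix with surfactant, were applied to freshly planted seeds and, at the same time, to emerged plants at 1- to 4-leaf stage (2 to 18 cm). After 12 to 14 days in the greenhouse, response was scored visually versus controls, 0 = no effect, 100 = complete control.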
# [2] = test system: goosegrass (Eleusine indica)
# Summary of the method: as §1
# [3] = test system: soybean (Glycine max)
# Summary of the method: as §1
# [4] = test system: common ragweed (Ambrosia elatior)
# Summary of the method: as §1
# [5] = test system: pigweed (Amaranthus retroflexus)
# Summary of the method: as §1
# [6] = test system: lambsquarters (Chenopodium album)
# Summary of the method: as §1
# [7] = test system: velvetleaf (Abutilon theophrasti)
# Summary of the method: as §1
# [8] = test system: bermudagrass (Cynodon dactylon)
# Summary of the method: as §1
# [9] = test system: kochia (Kochia scoparia)
# Summary of the method: as §1
# [10] = test system: johnsongrass (Sorghum halepense)
# Summary of the method: as §1
# [11] = 62 g ai/ha, scale 0 to 100 (0 no effect, 100 complete control)
# [12] = 125 g ai/ha, scale 0 to 100 (0 no effect, 100 complete control)
smiles,measurement,setting,value
COC(=O)c1nc(C2CC2)nc(N)c1I [Compound 7],pest or weed control at 62 g/ha,"[1]; Xanthium strumarium, post-emergence, 62 g ai/ha, scale 0 to 100 (0 no effect, 100 complete control), read-out: Cocklebur plant response rating",30%
same,pest or weed control at 125 g/ha,"[1]; Xanthium strumarium, post-emergence, 125 g ai/ha, scale 0 to 100 (0 no effect, 100 complete control), read-out: Cocklebur plant response rating",30%
same,pest or weed control at 250 g/ha,"[1]; Xanthium strumarium, post-emergence, 250 g ai/ha, scale 0 to 100, read-out: Plant response rating, Cocklebur",30%
same,pest or weed control at 500 g/ha,"[1]; Xanthium strumarium, post-emergence, 500 g ai/ha, scale 0 to 100, read-out: Plant response rating, Cocklebur",30%
same,pest or weed control at 62 g/ha,"[2]; Eleusine indica, post-emergence, 62 g ai/ha, scale 0 to 100 (0 no effect, 100 complete control), read-out: Goosegrass plant response rating",0%
same,pest or weed control at 125 g/ha,"[2]; Eleusine indica, post-emergence, 125 g ai/ha, scale 0 to 100 (0 no effect, 100 complete control), read-out: Goosegrass plant response rating",0%
same,pest or weed control at 250 g/ha,"[2]; Eleusine indica, post-emergence, 250 g ai/ha, scale 0 to 100, read-out: Plant response rating, Goosegrass",0%
same,pest or weed control at 500 g/ha,"[2]; Eleusine indica, post-emergence, 500 g ai/ha, scale 0 to 100, read-out: Plant response rating, Goosegrass",0%
same,plant injury at 62 g/ha,"[3]; Glycine max, post-emergence, 62 g ai/ha, scale 0 to 100 (0 no effect, 100 complete control), read-out: Soybean plant response rating",25%
same,plant injury at 125 g/ha,"[3]; Glycine max, post-emergence, 125 g ai/ha, scale 0 to 100 (0 no effect, 100 complete control), read-out: Soybean plant response rating",25%
same,plant injury at 250 g/ha,"[3]; Glycine max, post-emergence, 250 g ai/ha, scale 0 to 100, read-out: Plant response rating, Soybean",35%
same,plant injury at 500 g/ha,"[3]; Glycine max, post-emergence, 500 g ai/ha, scale 0 to 100, read-out: Plant response rating, Soybean",60%
same,pest or weed control at 62 g/ha,"[4]; Ambrosia artemisiifolia, post-emergence, 62 g ai/ha, scale 0 to 100 (0 no effect, 100 complete control), read-out: Ragweed plant response rating",25%
same,pest or weed control at 125 g/ha,"[4]; Ambrosia artemisiifolia, post-emergence, 125 g ai/ha, scale 0 to 100 (0 no effect, 100 complete control), read-out: Ragweed plant response rating",35%
same,pest or weed control at 250 g/ha,"[4]; Ambrosia artemisiifolia, post-emergence, 250 g ai/ha, scale 0 to 100, read-out: Plant response rating, Ragweed",65%
same,pest or weed control at 500 g/ha,"[4]; Ambrosia artemisiifolia, post-emergence, 500 g ai/ha, scale 0 to 100, read-out: Plant response rating, Ragweed",75%
same,pest or weed control at 62 g/ha,"[5]; Amaranthus retroflexus, post-emergence, 62 g ai/ha, scale 0 to 100 (0 no effect, 100 complete control), read-out: Pigweed plant response rating",20%
same,pest or weed control at 125 g/ha,"[5]; Amaranthus retroflexus, post-emergence, 125 g ai/ha, scale 0 to 100 (0 no effect, 100 complete control), read-out: Pigweed plant response rating",40%
same,pest or weed control at 250 g/ha,"[5]; Amaranthus retroflexus, post-emergence, 250 g ai/ha, scale 0 to 100, read-out: Plant response rating, Pigweed",40%
same,pest or weed control at 500 g/ha,"[5]; Amaranthus retroflexus, post-emergence, 500 g ai/ha, scale 0 to 100, read-out: Plant response rating, Pigweed",55%
same,pest or weed control at 62 g/ha,"[6]; Chenopodium album, post-emergence, 62 g ai/ha, scale 0 to 100 (0 no effect, 100 complete control), read-out: Lambsquarters plant response rating",50%
same,pest or weed control at 125 g/ha,"[6]; Chenopodium album, post-emergence, 125 g ai/ha, scale 0 to 100 (0 no effect, 100 complete control), read-out: Lambsquarters plant response rating",60%
same,pest or weed control at 250 g/ha,"[6]; Chenopodium album, post-emergence, 250 g ai/ha, scale 0 to 100, read-out: Plant response rating, Lambsquarters",70%
same,pest or weed control at 500 g/ha,"[6]; Chenopodium album, post-emergence, 500 g ai/ha, scale 0 to 100, read-out: Plant response rating, Lambsquarters",80%
same,pest or weed control at 62 g/ha,"[7]; Abutilon theophrasti, post-emergence, 62 g ai/ha, scale 0 to 100 (0 no effect, 100 complete control), read-out: Velvetleaf plant response rating",0%
same,pest or weed control at 125 g/ha,"[7]; Abutilon theophrasti, post-emergence, 125 g ai/ha, scale 0 to 100 (0 no effect, 100 complete control), read-out: Velvetleaf plant response rating",10%
same,pest or weed control at 250 g/ha,"[7]; Abutilon theophrasti, post-emergence, 250 g ai/ha, scale 0 to 100, read-out: Plant response rating, Velvetleaf",35%
same,pest or weed control at 500 g/ha,"[7]; Abutilon theophrasti, post-emergence, 500 g ai/ha, scale 0 to 100, read-out: Plant response rating, Velvetleaf",40%
same,pest or weed control at 62 g/ha,"[8]; Cynodon dactylon, post-emergence, 62 g ai/ha, scale 0 to 100 (0 no effect, 100 complete control), read-out: Bermudagrass plant response rating",0%
same,pest or weed control at 125 g/ha,"[8]; Cynodon dactylon, post-emergence, 125 g ai/ha, scale 0 to 100, read-out: Plant response rating, Bermudagrass",0%
same,pest or weed control at 250 g/ha,"[8]; Cynodon dactylon, post-emergence, 250 g ai/ha, scale 0 to 100, read-out: Plant response rating, Bermudagrass",0%
same,pest or weed control at 500 g/ha,"[8]; Cynodon dactylon, post-emergence, 500 g ai/ha, scale 0 to 100, read-out: Plant response rating, Bermudagrass",0%
same,pest or weed control at 62 g/ha,"[9]; Bassia scoparia, post-emergence, 62 g ai/ha, scale 0 to 100 (0 no effect, 100 complete control), read-out: Kochia plant response rating",40%
same,pest or weed control at 125 g/ha,"[9]; Bassia scoparia, post-emergence, 125 g ai/ha, scale 0 to 100 (0 no effect, 100 complete control), read-out: Kochia plant response rating",65%
same,pest or weed control at 250 g/ha,"[9]; Bassia scoparia, post-emergence, 250 g ai/ha, scale 0 to 100, read-out: Plant response rating, Kochia",70%
same,pest or weed control at 500 g/ha,"[9]; Bassia scoparia, post-emergence, 500 g ai/ha, scale 0 to 100, read-out: Plant response rating, Kochia",80%
same,pest or weed control at 62 g/ha,"[10]; Sorghum halepense, post-emergence, 62 g ai/ha, scale 0 to 100 (0 no effect, 100 complete control), read-out: Johnsongrass plant response rating",0%
same,pest or weed control at 125 g/ha,"[10]; Sorghum halepense, post-emergence, 125 g ai/ha, scale 0 to 100 (0 no effect, 100 complete control), read-out: Johnsongrass plant response rating",0%
same,pest or weed control at 250 g/ha,"[10]; Sorghum halepense, post-emergence, 250 g ai/ha, scale 0 to 100, read-out: Plant response rating, Johnsongrass",0%
same,pest or weed control at 500 g/ha,"[10]; Sorghum halepense, post-emergence, 500 g ai/ha, scale 0 to 100, read-out: Plant response rating, Johnsongrass",0%
CCOC(=O)c1nc(-c2ccc(Cl)cc2)nc(N)c1Br [Compound 37],Cocklebur plant response rating,[1]; [11],0
same,Cocklebur plant response rating,[1]; [12],95
same,"Plant response rating, Cocklebur","[1]; 250 g ai/ha, scale 0 to 100",95
same,"Plant response rating, Cocklebur","[1]; 500 g ai/ha, scale 0 to 100",95
same,Goosegrass plant response rating,[2]; [11],0
same,Goosegrass plant response rating,[2]; [12],0
same,"Plant response rating, Goosegrass","[2]; 250 g ai/ha, scale 0 to 100",0
same,"Plant response rating, Goosegrass","[2]; 500 g ai/ha, scale 0 to 100",0
same,Soybean plant response rating,[3]; [11],20
same,Soybean plant response rating,[3]; [12],85
same,"Plant response rating, Soybean","[3]; 250 g ai/ha, scale 0 to 100",95
same,"Plant response rating, Soybean","[3]; 500 g ai/ha, scale 0 to 100",100
same,Ragweed plant response rating,[4]; [11],0
same,Ragweed plant response rating,[4]; [12],80
same,"Plant response rating, Ragweed","[4]; 250 g ai/ha, scale 0 to 100",90
same,"Plant response rating, Ragweed","[4]; 500 g ai/ha, scale 0 to 100",95
same,Pigweed plant response rating,[5]; [11],0
same,Pigweed plant response rating,[5]; [12],95
same,"Plant response rating, Pigweed","[5]; 250 g ai/ha, scale 0 to 100",100
same,"Plant response rating, Pigweed","[5]; 500 g ai/ha, scale 0 to 100",100
same,Lambsquarters plant response rating,[6]; [11],0
same,Lambsquarters plant response rating,[6]; [12],95
same,"Plant response rating, Lambsquarters","[6]; 250 g ai/ha, scale 0 to 100",95
same,"Plant response rating, Lambsquarters","[6]; 500 g ai/ha, scale 0 to 100",95
same,Velvetleaf plant response rating,[7]; [11],0
same,Velvetleaf plant response rating,[7]; [12],85
same,"Plant response rating, Velvetleaf","[7]; 250 g ai/ha, scale 0 to 100",90
same,"Plant response rating, Velvetleaf","[7]; 500 g ai/ha, scale 0 to 100",95
same,Bermudagrass plant response rating,[8]; [11],0
same,Bermudagrass plant response rating,[8]; [12],0
same,"Plant response rating, Bermudagrass","[8]; 250 g ai/ha, scale 0 to 100",0
same,"Plant response rating, Bermudagrass","[8]; 500 g ai/ha, scale 0 to 100",20
same,Kochia plant response rating,[9]; [11],0
same,Kochia plant response rating,[9]; [12],90
same,"Plant response rating, Kochia","[9]; 250 g ai/ha, scale 0 to 100",95
same,"Plant response rating, Kochia","[9]; 500 g ai/ha, scale 0 to 100",95
same,Johnsongrass plant response rating,[10]; [11],0
same,Johnsongrass plant response rating,[10]; [12],20
same,"Plant response rating, Johnsongrass","[10]; 500 g ai/ha, scale 0 to 100",55
